According to patent publication US20100221274A1, “METHOD OF ADMINISTERING A THYMOSIN ALPHA 1 PEPTIDE” (SCICLONE PHARMACEUTICALS, INC., priority 2001, published 2010):
Peptide text beside a SMILES is read from it.

Experiments:
[1] = tested on: total lymphocytes (CD3+); assay: total lymphocyte number (CD3+ by flow cytometry) in 5-FU immune-suppressed rats, Example 2; assay type: in vivo
Method: (§1) 10 week old rats, weighing 250-300 g, received […] 5-FU for immune suppression.
(§2) 8 days after 5-FU treatment, rats were randomly assigned to one of the following groups (n=15): • Control (saline in minipump) • High dose TA1, injected s.c. at 3.5 mg/Kg (with empty minipumps) • Continuous infusion TA1, provided by minipump at 3.5 mg/Kg/5 days
(§3) Immune parameters were determined at baseline and 8 days after 5-FU treatment (day 1 of TA1 treatment), and also at 5 and 14 days after TA1 treatment.
(§4) The evaluations included total leukocyte number (judged by physical cytofluorimetric parameters, after verifying the specificity by monoclonal antibody), granulocytes (flow cytometry using FITC anti rat granulocyte HIS-48), total lymphocyte number (CD3+ by flow cytometry), T helper lymphocytes (CD4+ by flow cytometry), activated lymphocytes (CD25+CD3+ by flow cytometry), and cytokine expression in plasma (IL-2 and IFN-γ by ELISA).

[2] = tested on: granulocytes; assay: granulocytes (flow cytometry, HIS-48) in 5-FU immune-suppressed rats, Example 2; assay type: in vivo
Method: as §1, §2, §3, §4

[3] = tested on: NK activity; assay: NK activity (LDH released from YAC-1 cells after 4 h exposure to PBMC) in 5-FU immune-suppressed rats, Example 1; assay type: in vivo; settings: for NK activity: 5 days after TA1 treatment
Method: (§5) In the following examples, which are not intended to be limiting, a continuous infusion of TA1 (N-acetyl-[…]OH) (SEQ ID NO:1) was evaluated in a cancer therapy model with the use of surgically implanted osmotic minipumps, which deliver fluids at a constant flow rate for 5 days. Rats were given 5-fluorouracil (5-FU) to cause immune suppression, and then treated with injected or infused TA1 8 days later (the nadir of white cell count after 5-FU). Treatment groups, 8 rats each, were: control (minipumps with saline); low dose TA1 (0.2 mg/Kg sc injection; empty minipumps); high dose TA1 (3.5 mg/Kg sc injection; empty minipumps); and high dose infused TA1 (3.5 mg/Kg infused by minipumps). Immune parameters were determined at baseline and 8 days after 5-FU treatment (day 1 of TA1 treatment), and also at 5, 12, 20, and 27 days after TA1 treatment.
(§6) 10 week old rats, weighing 250-300 g, received 100 mg/kg 5-fluorouracil (5-FU) for immune suppression.
(§7) 8 days after 5-FU treatment, rats were randomly assigned to one of the following groups (n=8): • Control (saline in minipump) • Low dose TA1, injected s.c. at 0.2 mg/Kg (with empty minipumps) • High dose TA1, injected s.c. at 3.5 mg/Kg (with empty minipumps) • Continuous infusion TA1, provided by minipump at 3.5 mg/Kg/5 days
(§8) Immune parameters were determined at baseline and 8 days after 5-FU treatment (day 1 of TA1 treatment), and also at 5, 12, 20, and 27 days after TA1 treatment.
(§9) The evaluations included NK activity (LDH released from YAC-1 cells after 4 h exposure to PBMC), total leukocyte number (judged by physical cytofluorimetric parameters, after verifying the specificity by monoclonal antibody), total lymphocyte number (CD3+ by flow cytometry), and activated lymphocytes (CD25+CD3+ by flow cytometry).

[4] = tested on: total leukocyte number; assay: total white blood cell count in 5-FU immune-suppressed rats, Example 1; assay type: in vivo
Method: as §5, §6, §7, §8, §9

[5] = tested on: activated lymphocytes (CD3+CD25+); assay: activated lymphocytes (CD25+CD3+ by flow cytometry) in 5-FU immune-suppressed rats, Example 1; assay type: in vivo
Method: as §5, §6, §7, §8, §9

[6] = tested on: T helper lymphocytes (CD3+CD4+); assay: T helper lymphocytes (CD4+ by flow cytometry) in 5-FU immune-suppressed rats, Example 2; assay type: in vivo
Method: as §1, §2, §3, §4

[7] = tested on: IL-2; assay: cytokine expression in plasma by ELISA: IL-2, Example 2; assay type: in vivo, rats; settings: for plasma level of IL-2: 14 days after TA1
Method: as §1, §2, §3, §4

[8] = tested on: IFN-γ; assay: cytokine expression in plasma by ELISA: IFN-γ, Example 2; assay type: in vivo, rats
Method: as §1, §2, §3, §4

[9] = observation of adverse events in treated rats; assay type: in vivo
Method: as §2

[10] = tested on: activated lymphocytes (CD25+CD3+); assay: activated lymphocytes (CD25+CD3+ by flow cytometry) in 5-FU immune-suppressed rats, Example 2; assay type: in vivo
Method: as §1, §2, §3, §4

[11] = continuous infusion 3.5 mg/Kg/5 days
[12] = continuous infusion by minipump 3.5 mg/Kg/5 days
[13] = high dose injected s.c. 3.5 mg/Kg
[14] = low dose injected s.c. 0.2 mg/Kg
[15] = one animal, high dose injection followed by infusion

Question: Which “total lymphocytes (CD3+) after 5-FU” value ([1]; 8 days after 100 μg/kg 5-FU, baseline 10,904±1,973) does the source give for `O=c1[nH]cc(F)c(=O)[nH]1` [5-FU, 5-fluorouracil] here?
Answer: The value was 1,740±560 cells/mm^3.

Question: What about the “number of granulocytes after 5-FU” value ([2]; 8 days after 100 μg/kg 5-FU, baseline 4,485±1,116) of the same compound?
Answer: Its value is 1,249±432 cells/mm^3.

Question: And the “NK activity after 5-FU” value ([3]; 8 days after 100 mg/kg 5-FU, baseline 42±5%)?
Answer: The value was 9±2%.

Question: And the “total white blood cell count after 5-FU” value ([4]; 8 days after 100 mg/kg 5-FU, baseline 14,590±2,071)?
Answer: The value was 2,597±582 cells/mm^3.

Question: And the “activated lymphocytes (CD3+CD25+) after 5-FU” value ([5]; 8 days after 100 mg/kg 5-FU, baseline 65±21)?
Answer: The value was 37±10 cells/mm^3.

Question: And the “T helper lymphocytes (CD3+CD4+) after 5-FU” value ([6]; 8 days after 100 μg/kg 5-FU, baseline 5,411±1,084)?
Answer: Its value is 1,710±449 cells/mm^3.

Question: Which “plasma level of IL-2” value [7, 11] does the source give for `CC[C@H](C)[C@H](NC(=O)[C@H](CCC(=O)O)NC(=O)[C@H](CO)NC(=O)[C@H](CO)NC(=O)[C@@H](NC(=O)[C@H](CC(=O)O)NC(=O)[C@@H](NC(=O)[C@H](C)NC(=O)[C@H](C)NC(=O)[C@H](CC(=O)O)NC(=O)[C@H](CO)NC(C)=O)C(C)C)[C@@H](C)O)C(=O)N[C@H](C(=O)N[C@H](C(=O)N[C@@H](CCCCN)C(=O)N[C@@H](CC(=O)O)C(=O)N[C@@H](CC(C)C)C(=O)N[C@@H](CCCCN)C(=O)N[C@@H](CCC(=O)O)C(=O)N[C@@H](CCCCN)C(=O)N[C@@H](CCCCN)C(=O)N[C@@H](CCC(=O)O)C(=O)N[C@H](C(=O)N[C@H](C(=O)N[C@@H](CCC(=O)O)C(=O)N[C@@H](CCC(=O)O)C(=O)N[C@@H](C)C(=O)N[C@@H](CCC(=O)O)C(=O)N[C@@H](CC(N)=O)C(=O)O)C(C)C)C(C)C)[C@@H](C)O)[C@@H](C)O` [TA1] (Ac-SDAAVDTSSEITTKDLKEKKEVVEEAEN-OH) here?
Answer: The value was 42 ± 7 pg/mL.

Question: What about the “plasma level of IL-2” value ([7]; injected TA1 3.5 mg/Kg s.c.) of the same compound?
Answer: The value was 21 ± 16 pg/mL.

Question: What about the “plasma level of IL-2 relative to other animals” value ([7]; one animal, both injection and continuous infusion) of the same compound?
Answer: The value was “even greater levels of both of the Th1 cytokines measured”.

Question: And the “time to recovery of total lymphocytes (CD3+) to baseline levels” value [1, 11]?
Answer: The value was 5 days.

Question: What about the levels of lymphocytes ([1]; continuous infusion 3.5 mg/Kg/5 days, mean of other animals) of the same compound?
Answer: The levels of lymphocytes was 9,644±961 cells/mm^3.

Question: And the “time to recovery of total lymphocytes (CD3+) to baseline levels” value ([1]; injected TA1 3.5 mg/Kg s.c.)?
Answer: The value was 14 days.

Question: And the levels of lymphocytes ([1]; one animal, both injection and continuous infusion (3.5 mg/Kg each))?
Answer: Its levels of lymphocytes is 9,765 cells/mm^3.

Question: What about the number of granulocytes ([2]; TA1 by s.c. injection 3.5 mg/Kg, 5 days) of the same compound?
Answer: The number of granulocytes was 9,924±3,218 cells/mm^3.

Question: What about the number of granulocytes ([2]; continuous infusion 3.5 mg/Kg/5 days, 5 days) of the same compound?
Answer: The number of granulocytes was 14,652±2,463 cells/mm^3.

Question: What about the “number of granulocytes relative to other groups” value ([2]; continuous infusion 3.5 mg/Kg/5 days, after 14 days) of the same compound?
Answer: The value was “still the highest”.

Question: What about the number of granulocytes ([2]; one animal, both injection (3.5 mg/Kg) and continuous infusion (another 3.5 mg/Kg), after 5 days) of the same compound?
Answer: The number of granulocytes was 19,376 cells/mm^3.

Question: What about the “plasma level of IFN-γ” value ([8]; TA1 by injection 3.5 mg/Kg s.c., 14 days after treatment) of the same compound?
Answer: Its value is 10 ± 1 pg/mL.

Question: What about the “plasma level of IFN-γ” value ([8]; continuous infusion 3.5 mg/Kg/5 days, 14 days after treatment) of the same compound?
Answer: Its value is 14 ± 5 pg/mL.

Question: And the “plasma level of IFN-γ” value ([8]; one animal, both injection and continuous infusion, after 14 days)?
Answer: Its value is 45 pg/mL.

Question: What about the “plasma level of IFN-γ relative to other groups” value ([8]; s.c. injected TA1 3.5 mg/Kg, 5 days after treatment) of the same compound?
Answer: Its value is “higher plasma levels of IFN-γ”.

Question: What about the “recovery of NK activity” value [3, 12] of the same compound?
Answer: Its value is “complete recovery of NK activity to baseline levels”.

Question: And the NK activity ([3]; continuous infusion by minipump 3.5 mg/Kg/5 days, baseline 42±5%)?
Answer: The NK activity was 32±4%.

Question: What about the “time to significant recovery of NK activity” value [3, 13] of the same compound?
Answer: The value was 5 days.

Question: What about the NK activity [3, 13] of the same compound?
Answer: Its NK activity is 16±2%.

Question: And the “time to significant recovery of NK activity” value [3, 14]?
Answer: The value was 12 days.

Question: What about the NK activity [3, 14] of the same compound?
Answer: The NK activity was 12±3%.

Question: And the “recovery of total white blood cell count” value [4, 12]?
Answer: Its value is “statistically significant and complete recovery to baseline levels after only 5 days”.

Question: And the “recovery of total white blood cell count” value ([4]; low or high dose TA1 by s.c. injection (0.2 or 3.5 mg/Kg))?
Answer: Its value is “trended towards a sooner increase in recovery compared to untreated animals”.

Question: What about the “activated lymphocytes (CD3+CD25+)” value ([5]; continuous infusion 3.5 mg/Kg/5 days, 12 days after TA1 treatment) of the same compound?
Answer: Its value is 422±105 cells/mm^3.

Question: What about the “activated lymphocytes (CD3+CD25+)” value ([5]; continuous infusion 3.5 mg/Kg/5 days, 20 days after TA1 treatment) of the same compound?
Answer: Its value is 446±73 cells/mm^3.

Question: And the “activated lymphocytes (CD3+CD25+)” value ([5]; high dose injected 3.5 mg/Kg, 12 days after TA1 treatment)?
Answer: Its value is 297±136 cells/mm^3.

Question: What about the “activated lymphocytes (CD3+CD25+)” value ([5]; high dose injected 3.5 mg/Kg, 20 days after TA1 treatment) of the same compound?
Answer: The value was 321±75 cells/mm^3.

Question: What about the adverse events ([9]; doses of TA1 15 times higher than usual (one animal 30 times higher than usual)) of the same compound?
Answer: The adverse events was “No adverse events were observed”.

Question: What about the “adverse events / condition of the animal” value ([9]; one animal, both injection (3.5 mg/Kg) and continuous infusion (another 3.5 mg/Kg)) of the same compound?
Answer: The value was “healthy and vigorous, with no obvious adverse events”.

Question: What about the activated lymphocytes [10, 11] of the same compound?
Answer: Its activated lymphocytes is 428±89 cells/mm^3.

Question: What about the “percentage of lymphocytes which were activated” value [10, 11] of the same compound?
Answer: The value was 4 % of lymphocytes.

Question: What about the activated lymphocytes [10, 15] of the same compound?
Answer: Its activated lymphocytes is 976 cells/mm^3.

Question: And the “percentage of lymphocytes which were activated” value [10, 15]?
Answer: The value was 10 % of lymphocytes.

Question: And the “recovery of T helper cell levels” value ([6]; TA1 by either delivery method (injection or continuous infusion, 3.5 mg/Kg))?
Answer: The value was “sufficient to return the levels of T helper cells to baseline”.
